# Measured values as given in publication PMC9019572, “Design, Synthesis, and Biological Evaluation of [1,2,4]triazolo[4,3-a] Pyrazine Derivatives as Novel Dual c-Met/VEGFR-2 Inhibitors” (Frontiers in Chemistry, 2022).
# Read-outs that look alike come from different tables or passages of the source.
# What was measured:
# A549 cells = test: MTT antiproliferative assay, A549; assay type: cell-based; conditions: Homo sapiens, 72 h;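 further: formazan read-out dissolved in DMSO, each compound assayed three times, IC50 computed with Bliss software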
# Procedure: The cell lines used in the experiment were available from the Cell Culture Collection of Chinese Academy of Sciences (Shanghai Institutes for Biological Sciences, Chinese Academy of Sciences). […] The formazan crystals were dissolved in 100 µl of DMSO in each well. […] All compounds were tested three times in each of the cell lines. The results, expressed as inhibition rates or IC50 (half-maximal inhibitory concentration), were the averages of two determinations and calculated by using the Bacus Laboratories Incorporated Slide Scanner (Bliss) software.
# MCF-7 cells = test: MTT antiproliferative assay, MCF-7; assay type: cell-based; conditions: Homo sapiens, read-out: IC50 MCF-7
# Procedure: (§1) The cell lines used in the experiment were available from the Cell Culture Collection of Chinese Academy of Sciences (Shanghai Institutes for Biological Sciences, Chinese Academy of Sciences). Referring to the previous experimental methods of our research, all cells were cultured in suitable medium such as DMEM or RPMI-1640 containing 10% fetal bovine serum at 37°C in 5% CO2 and propagated for 24 h. Then the compounds with different gradient concentrations were added into the medium and incubated for 72 h, and then MTT (thiazolyl blue tetrazolium bromide) with a concentration of 5 µg/ml was added to every well for 4 h at 37°C. The formazan crystals were dissolved in 100 µl of DMSO in each well. The absorbancy at 492 nm (for absorbance of MTT formazan) and 630 nm (for the reference wavelength) was measured with an ELISA reader. All compounds were tested three times in each of the cell lines. The results, expressed as inhibition rates or IC50 (half-maximal inhibitory concentration), were the averages of two determinations and calculated by using the Bacus Laboratories Incorporated Slide Scanner (Bliss) software.
# Hela cells = test: MTT antiproliferative assay, Hela; assay type: cell-based; conditions: Homo sapiens, 72 h, read-out: IC50 Hela
# Procedure: as §1
# c-Met kinase = c-Met kinase (Homo sapiens, UniProt P08581); test: c-Met kinase inhibition assay; assay type: biochemical
# Procedure: The kinase assay was performed by Pratzer Biotechnology Co. Ltd. (Changsha, China).
# H460 cells = test: Antiproliferative activity, H460; assay type: cell-based; conditions: Homo sapiens, NCI-H460
# Procedure: as §1
# PC-9 cells = test: Antiproliferative activity, PC-9; assay type: cell-based; conditions: Homo sapiens
# Procedure: as §1
# H1975 cells = test: Antiproliferative activity, H1975; assay type: cell-based; conditions: Homo sapiens, NCI-H1975
# Procedure: as §1
# Sequence of c-Met kinase (P08581 25-1390): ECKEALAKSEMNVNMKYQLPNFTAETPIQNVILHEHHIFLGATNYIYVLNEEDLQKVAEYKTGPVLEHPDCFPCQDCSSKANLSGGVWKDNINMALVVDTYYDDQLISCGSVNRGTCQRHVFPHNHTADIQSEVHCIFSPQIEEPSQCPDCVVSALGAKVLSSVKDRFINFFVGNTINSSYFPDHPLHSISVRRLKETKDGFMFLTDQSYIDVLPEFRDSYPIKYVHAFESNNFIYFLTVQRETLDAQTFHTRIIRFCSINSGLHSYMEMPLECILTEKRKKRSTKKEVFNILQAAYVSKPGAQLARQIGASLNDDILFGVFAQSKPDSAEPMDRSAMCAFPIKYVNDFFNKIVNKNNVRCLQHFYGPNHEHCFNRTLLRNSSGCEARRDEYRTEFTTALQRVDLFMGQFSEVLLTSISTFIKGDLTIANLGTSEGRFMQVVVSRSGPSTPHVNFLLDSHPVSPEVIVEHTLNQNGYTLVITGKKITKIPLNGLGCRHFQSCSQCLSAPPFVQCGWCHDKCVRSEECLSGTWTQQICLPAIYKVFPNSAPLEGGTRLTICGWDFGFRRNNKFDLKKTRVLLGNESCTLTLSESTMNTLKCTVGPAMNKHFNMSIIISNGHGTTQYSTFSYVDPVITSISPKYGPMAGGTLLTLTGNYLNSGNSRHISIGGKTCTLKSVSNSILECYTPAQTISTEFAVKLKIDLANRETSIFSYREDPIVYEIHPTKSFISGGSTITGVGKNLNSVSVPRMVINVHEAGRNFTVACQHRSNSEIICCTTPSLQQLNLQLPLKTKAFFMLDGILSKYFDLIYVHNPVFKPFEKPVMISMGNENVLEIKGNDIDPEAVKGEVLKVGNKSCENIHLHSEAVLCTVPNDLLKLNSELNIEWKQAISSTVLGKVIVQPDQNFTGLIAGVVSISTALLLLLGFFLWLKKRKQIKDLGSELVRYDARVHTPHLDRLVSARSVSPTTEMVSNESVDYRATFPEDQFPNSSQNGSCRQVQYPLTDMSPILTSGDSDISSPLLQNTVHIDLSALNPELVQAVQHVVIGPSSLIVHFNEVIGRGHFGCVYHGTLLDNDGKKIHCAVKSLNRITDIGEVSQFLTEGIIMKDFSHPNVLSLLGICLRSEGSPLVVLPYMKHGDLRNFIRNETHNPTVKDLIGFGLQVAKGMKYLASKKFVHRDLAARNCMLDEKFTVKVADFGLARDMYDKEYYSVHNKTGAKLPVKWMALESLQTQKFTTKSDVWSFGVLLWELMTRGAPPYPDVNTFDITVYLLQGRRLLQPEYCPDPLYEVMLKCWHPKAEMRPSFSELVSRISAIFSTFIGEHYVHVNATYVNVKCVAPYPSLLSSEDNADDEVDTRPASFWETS
SMILES,IC50 (A549 cells) [µM],melting point [°C],"IC50 (MCF-7 cells; MCF7, MTT, 72 h, MCF-7 cells) [µM]","IC50 (Hela cells; MTT, Hela cells) [µM]",IC50 (c-Met kinase) [µM],"IC50 (MCF-7 cells; MCF7, 72 h) [µM]",IC50 (Hela cells; HeLa) [µM],IC50 (H460 cells) [µM],IC50 (PC-9 cells) [µM],IC50 (H1975 cells) [µM]
Cc1nc(-c2ccccc2)sc1C(=O)Nc1ccc(Oc2nccn3cnnc23)c(F)c1 [16 g],8.21 ± 0.65,278.1 to 282.7,9.17 ± 1.03,17.7 ± 1.29,0.658,,,,,
Cc1nc(-c2ccccn2)sc1C(=O)Nc1ccc(Oc2nccn3cnnc23)c(F)c1 [16 h],6.56 ± 0.42,203.4 to 207.6,8.18 ± 1.12,13.9 ± 1.59,0.437,,,,,
O=C(Nc1ccc(Oc2nccn3cnnc23)c(F)c1)c1cnn(-c2ccc(Cl)cc2)c1C(F)(F)F [16 k],6.18 ± 0.34,,6.51 ± 0.63,12.9 ± 1.06,0.38,,,,,
Cc1nc(-c2ccccc2)sc1C(=O)Nc1ccc(Oc2nccn3cnnc23)cc1 [16a],12.4 ± 0.97,265.8 to 268.1,13.8 ± 1.23,21.5 ± 1.78,0.794,,,,,
Cc1nc(-c2ccccn2)sc1C(=O)Nc1ccc(Oc2nccn3cnnc23)cc1 [16b],6.46 ± 0.33,,7.87 ± 0.42,12.2 ± 1.08,0.379,,,,,
Cc1nc(-c2ccncc2)sc1C(=O)Nc1ccc(Oc2nccn3cnnc23)cc1 [16c],5.58 ± 0.75,235.6 to 237.5,6.45 ± 0.81,14.3 ± 1.15,0.345,,,,,
O=C(Nc1ccc(Oc2nccn3cnnc23)cc1)c1cnn(-c2ccc(Cl)cc2)c1C(F)(F)F [16d],12.3 ± 0.98,261.3 to 263.5,11.5 ± 1.06,19.5 ± 1.94,0.722,,,,,
O=C(Nc1ccc(Oc2nccn3cnnc23)cc1)c1cc(-c2cccs2)n[nH]1 [16e],5.44 ± 0.42,,7.13 ± 0.63,11.2 ± 0.96,0.342,,,,,
O=C(Nc1ccc(Oc2nccn3cnnc23)cc1)c1cc(-c2cccs2)no1 [16f],27.3 ± 0.86,291.5 to 293.1,> 50,> 50,> 1,,,,,
Cc1nc(-c2cccnc2)sc1C(=O)Nc1ccc(Oc2nccn3cnnc23)c(F)c1 [16i],17.4 ± 0.97,,19 ± 1.32,25 ± 2.17,,,,,,
Cc1nc(-c2ccncc2)sc1C(=O)Nc1ccc(Oc2nccn3cnnc23)c(F)c1 [16j],3.26 ± 0.67,226.9 to 229.1,3.68 ± 0.34,6.17 ± 0.58,0.11,,,,,
O=C(Nc1ccc(Oc2nccn3cnnc23)c(F)c1)c1cc(-c2cccs2)no1 [16l],11.4 ± 0.76,,12 ± 1.24,23.3 ± 2.12,0.725,,,,,
Cc1nc(-c2ccccc2)sc1C(=O)Nc1ccc(Oc2nccn3c(C)nnc23)c(F)c1 [17 g],,299 to 302.1,,,,,,,,
Cc1nc(-c2ccccn2)sc1C(=O)Nc1ccc(Oc2nccn3c(C)nnc23)c(F)c1 [17 h],3.56 ± 0.32,,4.25 ± 0.76,7.43 ± 0.38,0.156,,,,,
Cc1nc(-c2ccc(F)cc2)sc1C(=O)Nc1ccc(Oc2nccn3c(C)nnc23)c(F)c1 [17 k],15.3 ± 0.51,,18.2 ± 1.28,25.3 ± 2.4,,,,,,
Cc1nnc2c(Oc3ccc(NC(=O)c4cc(-c5cccs5)no4)cc3F)nccn12 [17 m],8.84 ± 0.97,,9.34 ± 1.03,17.4 ± 1.56,0.653,,,,,
Cc1nc(-c2ccccc2)sc1C(=O)Nc1ccc(Oc2nccn3c(C)nnc23)cc1 [17a],1.23 ± 0.13,,1.43 ± 0.21,2.31 ± 0.29,0.055,,,,,
Cc1nc(-c2ccccn2)sc1C(=O)Nc1ccc(Oc2nccn3c(C)nnc23)cc1 [17b],4.31 ± 0.49,,5.15 ± 0.72,9.46 ± 0.58,0.245,,,,,
Cc1nc(-c2ccncc2)sc1C(=O)Nc1ccc(Oc2nccn3c(C)nnc23)cc1 [17c],7.68 ± 0.71,270.7 to 273.8,8.79 ± 0.89,15.9 ± 1.1,0.532,,,,,
Cc1nc(-c2ccc(F)cc2)sc1C(=O)Nc1ccc(Oc2nccn3c(C)nnc23)cc1 [17d],5.21 ± 0.37,,6.95 ± 0.67,10.7 ± 1.42,0.289,,,,,
Cc1nnc2c(Oc3ccc(NC(=O)c4cnn(-c5ccc(Cl)cc5)c4C(F)(F)F)cc3)nccn12 [17e],2.05 ± 0.19,,1.74 ± 0.22,4.78 ± 0.43,0.077,,,,,
Cc1nnc2c(Oc3ccc(NC(=O)c4cc(-c5cccs5)n[nH]4)cc3)nccn12 [17f],5.73 ± 0.54,275.6 to 278.1,6.38 ± 0.85,12.4 ± 1.53,0.3,,,,,
Cc1nc(-c2cccnc2)sc1C(=O)Nc1ccc(Oc2nccn3c(C)nnc23)c(F)c1 [17i],188,220.7 to 223.1,25.4 ± 1.54,> 50,,,,,,
Cc1nc(-c2ccncc2)sc1C(=O)Nc1ccc(Oc2nccn3c(C)nnc23)c(F)c1 [17j],7.16 ± 0.45,,7.31 ± 0.77,14.2 ± 1.64,0.45,,,,,
"COc1cc2c(Oc3ccc(NC(=O)C4(C(=O)Nc5ccc(F)cc5)CC4)cc3F)ccnc2cc1OCCCN1CCOCC1 [Foretinib, foretinib, reference compound]",,,,,,0.93 ± 0.09,1.18 ± 0.25,,,
"CNC(=O)c1cc(Oc2ccc(NC(=O)Nc3ccc(Cl)c(C(F)(F)F)c3)cc2)ccn1 [Sorafenib, sorafenib, reference compound]",,,,,,,,5.27 ± 0.72,5.41 ± 0.73,10.2 ± 1
